Measured values: patent publication US20120258980A1, “Antibacterial Agent for Drug-Resistant Bacteria, Method for Screening for Same, and Use of Same” (priority 2009, published 2012)
Read-outs that look alike come from different tables or passages of the source.

Assays:
VRSA clinical isolates = details: based on NARSA, cited from earlier work
[1] = tested on: MRSA, CA-MRSA and MSSA of Staphylococcus aureus; assay: MIC measurement, Test Example 4 (MRSA, CA-MRSA and MSSA strains); format: cell-based
Protocol: (§1) Each of the bacterial strains listed in Table 1-1 was shake-cultured at 37° C. overnight in 4 mL of a medium (Tryptical Soy Broth: TSB, product of Becton Dickinson and Company). FDA209P was used as a control.
(§2) After completion of culturing, the resultant culture was suspended in a cation-adjusted Mueller Hinton Broth (CAMHB, product of Becton Dickinson and Company). Then, the obtained bacterial culture was adjusted in absorbance with the CAMHB so that the absorbance at 578 nm of the bacterial culture was adjusted to 0.3 measured by an absorption spectrometer. In addition, the resultant bacterial culture was 500-fold diluted with the CAMHB.
(§3) Each of the 500-fold diluted, pre-cultured bacterial cultures was added at 50 μL/well to the CAMHB containing the quinolones and the nybomycins at various concentrations (50 μL/well), followed by statically culturing at 37° C. overnight.
(§4) After completion of culturing, the growth of the bacteria was visually determined based on turbidity to measure MIC in each bacterial strain.
Glycopeptides, imipenem, quinolones and nybomycins were studied for antibacterial activity against the bacterial strains listed in Table 2-1; i.e., MRSA, CA-MRSA and MSSA of Staphylococcus aureus.

[2] = tested on: VISA clinical isolates of MRSA (VI-MRSA) and of MSSA (VI-MSSA); assay: microbe, parasite or virus in culture; format: cell-based, Staphylococcus aureus
Protocol: as §1, §2, §3, §4
Here, the glycopeptides used were VCM and TEIC. The β-lactam used was OXA.

In the case of teicoplanin, the MIC (VRSA clinical isolates; VRS1, VRSA, Michigan) is given as 64 µg/mL, the MIC (VRSA clinical isolates; VRS2, VRSA, Pennsylvania) is given as 8 µg/mL and the MIC (VRSA clinical isolates; VRS3, VRSA, New York) is given as 16 µg/mL. For the same substance, the MIC (VRSA clinical isolates; VRS4, VRSA, New York) was 32 µg/mL, the MIC (VRSA clinical isolates; VRS5, VRSA, Michigan) was 128 µg/mL and the MIC (VRSA clinical isolates; VRS6, VRSA, Michigan) was greater than 256 µg/mL. The MIC (VRSA clinical isolates; VRS7, VRSA, Michigan) was greater than 256 µg/mL, the MIC ([1]; ATCC 29213, MSSA) was 2 µg/mL and the MIC ([1]; COL, MRSA) was 2 µg/mL. It also gave an MIC ([1]; FDA209P, MSSA) of 0.06 µg/mL, an MIC ([1]; ISA12-1, MRSA) of 1 µg/mL and an MIC ([1]; ISA12-2, MRSA) of 1 µg/mL. For the same substance, the MIC ([1]; ISA35-1, MRSA) was 2 µg/mL, the MIC ([1]; ISA37-1, MSSA) was 1 µg/mL and the MIC ([1]; ISA49-1, MSSA) was 0.5 µg/mL. For the same substance, the MIC ([1]; ISA51-1, MSSA) was 0.5 µg/mL, the MIC ([1]; ISA56-3, MRSA) was 4 µg/mL and the MIC ([1]; ISA58-1, MRSA) was 2 µg/mL. The MIC ([1]; ISA62-1, MRSA) was 1 µg/mL, the MIC ([1]; ISA73-1, MSSA) was 2 µg/mL and the MIC ([1]; KBSA32, MRSA) was 1 µg/mL. For the same substance, the MIC ([1]; KBSA34, MRSA) was 1 µg/mL, the MIC ([1]; KBSA72, MRSA) was 1 µg/mL and the MIC ([1]; KBSA96, MRSA) was 1 µg/mL. The MIC ([1]; KBSA171, MRSA) was 0.25 µg/mL, the MIC ([1]; KSA24, MRSA) was 1 µg/mL and the MIC ([1]; KSA31, MRSA) was 1 µg/mL. For the same substance, the MIC ([1]; KSA36, MRSA) was 1 µg/mL, the MIC ([1]; MW2, CA-MRSA) was 0.5 µg/mL and the MIC ([1]; N315, MRSA) was 0.25 µg/mL. It also gave an MIC ([1]; NCTC 8325, MSSA) of 0.5 µg/mL, an MIC ([1]; USA300 FPR3757, CA-MRSA) of 1 µg/mL and an MIC ([2]; 99/3700-W, VI-MRSA, The United Kingdom) of 2 µg/mL. The MIC ([2]; 99/3759-V, VI-MRSA, The United Kingdom) was 8 µg/mL, the MIC ([2]; 28160, VI-MRSA, South African Republic) was 4 µg/mL and the MIC ([2]; 98141, VI-MRSA, France) was 4 µg/mL. It also gave an MIC ([2]; A7 (JCSC4842), VI-MRSA, Taiwan) of 8 µg/mL, an MIC ([2]; AMC11094, VI-MRSA, Korea) of 8 µg/mL and an MIC ([2]; B7 (JCSC4852), VI-MRSA, Taiwan) of 16 µg/mL. For the same substance, the MIC ([2]; BR1, VI-MRSA, Brazil) was 2 µg/mL, the MIC ([2]; BR2, VI-MRSA, Brazil) was 1 µg/mL and the MIC ([2]; BR3, VI-MRSA, Brazil) was 4 µg/mL. For the same substance, the MIC ([2]; BR4, VI-MRSA, Brazil) was 8 µg/mL, the MIC ([2]; BR5, VI-MRSA, Brazil) was 4 µg/mL and the MIC ([2]; HIP06297, VI-MRSA, America) was 8 µg/mL. The MIC ([2]; HIP06854, VI-MRSA, America) was 2 µg/mL, the MIC ([2]; HIP07920, VI-MRSA, America) was 2 µg/mL and the MIC ([2]; HIP07930, VI-MRSA, America) was 4 µg/mL. The MIC ([2]; HIP08926, VI-MRSA, America) was 4 µg/mL, the MIC ([2]; HIP09143, VI-MRSA, America) was 4 µg/mL and the MIC ([2]; HIP09313, VI-MRSA, America) was 4 µg/mL. The MIC ([2]; HIP09433, VI-MRSA, America) was 8 µg/mL, the MIC ([2]; HIP09662, VI-MRSA, America) was 4 µg/mL and the MIC ([2]; HIP09735, VI-MRSA, America) was 4 µg/mL. The MIC ([2]; HIP09737, VI-MSSA, America) was 4 µg/mL, the MIC ([2]; HIP09740, VI-MRSA, America) was 4 µg/mL and the MIC ([2]; HIP10267, VI-MRSA, America) was 4 µg/mL. For the same substance, the MIC ([2]; HIP10540, VI-MRSA, America) was 16 µg/mL, the MIC ([2]; HIP12864, VI-MRSA, America) was 8 µg/mL and the MIC ([2]; HIP13036, VI-MRSA, America) was 4 µg/mL. It also gave an MIC ([2]; HIP13057, VI-MRSA, America) of 8 µg/mL, an MIC ([2]; IL (HIP7737), VI-MRSA, America) of 4 µg/mL and an MIC ([2]; JCSC7193, VI-MRSA, Thailand) of 8 µg/mL. For the same substance, the MIC ([2]; JCSC7195, VI-MRSA, Thailand) was 8 µg/mL, the MIC ([2]; JCSC7203, VI-MRSA, Thailand) was 4 µg/mL and the MIC ([2]; LIM2, VI-MRSA, France) was 8 µg/mL. It also gave an MIC ([2]; LY-1999-01, VI-MSSA, Oman) of 8 µg/mL, an MIC ([2]; LY-1999-03, VI-MRSA, Oman) of 8 µg/mL and an MIC ([2]; MI (HIP5827), VI-MRSA, America) of 8 µg/mL. The MIC ([2]; Mu3, VI-MRSA, Japan) was 8 µg/mL, the MIC ([2]; Mu50, VI-MRSA, Japan) was 16 µg/mL and the MIC ([2]; NJ (HIP5836), VI-MRSA, America) was 8 µg/mL. The MIC ([2]; NRS76, VI-MSSA, America) was 4 µg/mL, the MIC ([2]; NRS79, VI-MRSA, America) was 8 µg/mL and the MIC ([2]; NRS118, VI-MRSA, America) was 8 µg/mL. The MIC ([2]; NRS126, VI-MRSA, America) was 2 µg/mL, the MIC ([2]; P1V44, VI-MSSA, Belgium) was 16 µg/mL and the MIC ([2]; PC, VI-MRSA, America) was 4 µg/mL. The MIC ([2]; SA MER-S6, VI-MSSA, France) was 8 µg/mL, the MIC ([2]; SA MER-S12, VI-MSSA, France) was 16 µg/mL and the MIC ([2]; SA MER-S20, VI-MSSA, France) was 32 µg/mL.
